Patent EP0060099A1, “Antiviral agents, their preparation and use” (BEECHAM GROUP PLC, priority 1981, dated 1982)
In brackets after ≈: the same amount, converted by molar mass.

What was measured:
[1] = Toxicity to the cell monolayer in the plaque reduction test (MTD); format: cell-based, African Green Monkey; settings: monkey, vero cells; minimum concentration which killed the cell monolayer; virus infected Vero cultures, 37°C for 6 days
Description: (§1) Vero (African Green Monkey Kidney) cells were grown to confluence in 6 well multidishes, each well being 3.5 cm in diameter'. The cells were incubated with Herpes simplex type 1 virus (HFEM strain) and overlaid with 0.5 mL of 0.9% agarose (w/v) in maintenance medium containing the test compound at a range of concentrations from […] in half-log dilution steps. The virus infected cultures were then incubated at 37°C for 6 days before fixing in 4% formaldehyde solution and staining with carbolfuchsin. The dishes were then examined to find that concentration of test compound causing a 50% reduction in the number of virus plaques formed (PDD50 value) and the minimum concentration of test compound which killed the cell monolayer, leaving a clear zone devoid of cells and virus plaques (MTD).

[2] = system: Herpes simplex type 1 virus (HFEM strain); assay: Plaque reduction test in Vero cells infected with Herpes simplex type 1 virus; format: cell-based; settings: Human alphaherpesvirus 1, 144 h, concentration causing a 50% reduction in the number of virus plaques formed, agarose overlay, 37°C for 6 days, read-out: PDD50 (the source's name)
Description: as §1

Q: With `O=c1nc2n(cc1/C=C/Br)[C@H]1C[C@H](O)[C@@H](CO2)O1` [1 (b), 2,5'-Anhydro-E-5-(2-bromovinyl)-2'-deoxyuridine] as the compound, how does the MCC at 144 h [1] read?
A: > 50 µg/mL

Q: And the IC50 [2]?
A: 2.8 µg/mL (≈ 8.89 µM)

Q: Which MCC at 144 h [1] does the source give for `CC(=O)OC1CC2OC1COc1nc(=O)c(C=CBr)cn12` (stereo not shown) [2 (b), 3'-0-Acetyl-2,5'-anhydro-E-5-(2-bromovinyl)-2'-deoxyuridine] here?
A: > 100 µg/mL

Q: And the IC50 [2]?
A: 13.5 µg/mL (≈ 37.8 µM)
